The values that follow come from patent US8486979B2, “1,2,4 oxadiazole compounds and methods of use thereof” (AbbVie Inc., priority 2006, dated 2013).

Structures are written as SMILES. Where a name gives a salt, the structure may show the parent alone.

T1 sequence (P43681 29-627 limits assumed): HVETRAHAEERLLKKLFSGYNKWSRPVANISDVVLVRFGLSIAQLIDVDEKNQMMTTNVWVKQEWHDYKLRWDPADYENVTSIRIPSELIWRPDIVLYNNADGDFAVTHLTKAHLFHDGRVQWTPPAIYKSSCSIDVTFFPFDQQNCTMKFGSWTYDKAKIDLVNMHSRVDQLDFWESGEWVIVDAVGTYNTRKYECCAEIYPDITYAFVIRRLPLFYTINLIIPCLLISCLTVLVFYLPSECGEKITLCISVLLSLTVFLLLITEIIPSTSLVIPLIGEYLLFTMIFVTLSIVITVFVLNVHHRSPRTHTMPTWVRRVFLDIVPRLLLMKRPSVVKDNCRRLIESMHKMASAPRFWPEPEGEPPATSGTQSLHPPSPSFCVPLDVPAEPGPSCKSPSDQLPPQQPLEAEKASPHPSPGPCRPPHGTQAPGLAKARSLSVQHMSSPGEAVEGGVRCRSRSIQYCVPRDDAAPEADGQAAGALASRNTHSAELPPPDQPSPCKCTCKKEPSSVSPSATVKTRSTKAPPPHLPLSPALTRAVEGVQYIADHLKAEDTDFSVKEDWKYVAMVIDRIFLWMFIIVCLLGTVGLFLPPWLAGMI
T1 sequence (P17787 26-502): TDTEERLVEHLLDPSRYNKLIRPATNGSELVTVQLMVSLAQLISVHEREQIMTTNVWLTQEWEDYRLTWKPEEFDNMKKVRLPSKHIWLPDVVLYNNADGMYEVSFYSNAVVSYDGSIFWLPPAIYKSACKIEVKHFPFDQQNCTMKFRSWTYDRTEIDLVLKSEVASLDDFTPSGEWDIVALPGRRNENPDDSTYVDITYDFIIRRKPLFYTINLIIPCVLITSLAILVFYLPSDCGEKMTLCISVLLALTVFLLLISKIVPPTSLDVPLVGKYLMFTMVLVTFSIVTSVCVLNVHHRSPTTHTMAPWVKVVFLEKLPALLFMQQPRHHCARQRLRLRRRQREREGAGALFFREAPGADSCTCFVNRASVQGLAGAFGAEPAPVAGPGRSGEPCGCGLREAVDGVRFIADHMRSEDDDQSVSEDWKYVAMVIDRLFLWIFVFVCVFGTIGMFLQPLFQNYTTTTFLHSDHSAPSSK

One assay concerns the target T1, human α4β2 nicotinic acetylcholine receptor (Homo sapiens, UniProt P17787+P43681).
T1 construct: expressed in transfected cells
The assay can be described thus: Calcium flux (FLIPR) assay, HEK-293 cells expressing human α4β2 nAChR. Format: cell-based. The note with it: presence and absence of α4β2 PAM Compound 1, FIG. 5. The method, then:
Experimental Procedure: Human embryonic kidney (HEK) 293 cells stably expressing human α4β2 or α3β4 combinations are grown to confluency in 162 cm^2 tissue culture flasks in DMEM media supplemented with 10% FBS and 25 μg/ml zeocin and 200 μg/ml hygromycin B. IMR-32 neuroblastoma cells (ATCC) are grown to confluency in 162 cm^2 tissue culture flasks in minimum essential media supplemented with 10% FBS and 1 mM sodium pyruvate, 1% non-essential amino acids and 1% antibiotic-antimycotic. The cells are then dissociated using cell dissociation buffer and 100-150 μl per well of 3.5×10^5 cells/ml cell suspension (˜50,000-100,000 cells/well) was plated into 96-well black plates (poly-D-lysine precoated) with clear bottom and maintained for 24-48 hours in a tissue culture incubator at 37° C. under an atmosphere of 5% CO2: 95% air. Other clonal cell lines or primary cell cultures that express endogenous α4* nicotinic receptors may also be used in this assay. Calcium flux was measured using calcium-3 assay kit (Molecular Devices, Sunnyvale, Calif.) or fluo-4 (Invitrogen). A stock solution of the dye was prepared by dissolving each vial supplied by the vendor in Hank's balanced salt solution buffer (HBSS) or 150 mM NMDG, 20 mM CaCl2 containing 10 mM HEPES, The stock solution was diluted 1:20 using the same buffer before use. The growth media was removed from the cells. The cells were loaded with 100 μl of the dye per well and incubated at room temperature for up to one hour for HEK 293 clonal stable cell lines or 30 minutes-45 minutes at 37° C. for IMR-32 cells Fluorescence measurements were read simultaneously from all the wells by a Fluorometic Imaging Plate Reader (FLIPR) at an excitation wavelength of 480 nm and an emission wavelength of 520 nm. Baseline fluorescence was measured for the first 6 seconds at which 3× concentrations of modulator/test compounds were added to the cell plate at 50 μl and incubated for five minutes. The fluorescence intensity was captured every second for the first 1 minute followed by every 5 seconds for an additional 4 minutes. This procedure was followed by 50 μl of 4× concentration of agonist and readings were taken for a period of 3-5 minutes as described above. Data was normalized to maximal responses and plotted as a function of concentration. The concentration dependence of changes fluorescence responses was fitted by nonlinear regression analysis (GraphPad Prism, San Diego, Calif.) to obtain EC50 values.
The positive allosteric modulator effects on α4β2 nAChRs exemplified by 3-(3-pyridin-3-yl-1,2,4-oxadiazol-5-yl)benzonitrile (Compound 1) and 3,5-di(pyridin-3-yl)-1,2,4-oxadiazole (Compound 2) can be identified by measuring their potentiating effect to fluorescence changes in intracellular calcium using a fluorimetric plate reader. The potentiating effect of an α4β2 modulator on α4β2 receptor can also be illustrated by concentration responses to α4β2 agonists, for example 5-[(2R)-azetidin-2-ylmethoxy]-2-chloropyridine (Compound A) and (3R)-1-pyridin-3-ylpyrrolidin-3-amine (Compound B), in presence of a fixed concentration of PAM. […] In addition to compound A and B, other known nicotinic agonists can be left-shifted in presence of α4β2 PAM such as […]. […] This could lead to preferential effects of the agonist at the desired subtype, viz., α4β2, without effects at other nicotinic receptor subtypes and thus enhancing in vivo selectivity of the agonist.
The activity (allosteric effects—potentiation of fluorescence responses) ranges are defined as follows; “a” denotes as activity range from 200-400%, “b” denotes an activity range from 150-200%, “c” denotes an activity range from 120-150% and “d” denotes an activity range 90-120%. […]
With `c1cnc2cc3c(cc2n1)[C@@H]1CNC[C@H]3C1` [varenicline, reference compound], the “potency (EC50 values) for activation of α4β2 nAChRs in the presence vs absence of PAM” value is “increase in the presence of the positive allosteric modulator”.

As to `CN[C@@H](C)C/C=C/c1cncc(OC(C)C)c1` [ispronicline, reference compound], the “potency (EC50 values) for activation of α4β2 nAChRs in the presence vs absence of PAM” value is given as “increase in the presence of the positive allosteric modulator”.

The assay is the same for the next values; noted with them: α4β2 positive allosteric modulation, calcium fluorescence (FLIPR).
As to `O=c1[nH]c2cc(-c3noc(-c4cccnc4)n3)ccc2o1` [Example 132, 5-(5-(pyridin-3-yl)-1,2,4-oxadiazol-3-yl)benzo[d]oxazol-2(3H)-one], the “Activity (allosteric effects—potentiation of fluorescence responses)” value (shortened to “Activity”) is reported as “a (“a” denotes as activity range from 200-400%)”.

On to `Fc1ccc(-c2nc(-c3cncnc3)no2)cc1F` [Example 101, 5-(3,4-difluorophenyl)-3-(pyrimidin-5-yl)-1,2,4-oxadiazole tosylate], for which the “Activity” value is given as “a (“a” denotes as activity range from 200-400%)”.

For `CS(=O)(=O)c1cccc(-c2nc(-c3cccnc3)no2)c1` [Example 41, 5-(3-(methylsulfonyl)phenyl)-3-(pyridin-3-yl)-1,2,4-oxadiazole], the “Activity” value is given as “c (“c” denotes an activity range from 120-150%)”.

Take `Fc1ccc(-c2nc(-c3ccnnc3)no2)cc1F` [Example 83, 5-(3,4-Difluorophenyl)-3-(pyridazin-4-yl)-1,2,4-oxadiazole hydrochloride]: the “Activity” value is given as “a (“a” denotes as activity range from 200-400%)”.

As for `c1cncc(-c2noc(-c3cccnc3)n2)c1` [Example 2, 3,5-di(pyridin-3-yl)-1,2,4-oxadiazole], the “Activity” value is listed as “a (“a” denotes as activity range from 200-400%)”.

Take `O=c1[nH]c2cc(-c3nc(-c4cccnc4)no3)ccc2o1` [Example 125, 5-(3-(pyridin-3-yl)-1,2,4-oxadiazol-5-yl)benzo[d]oxazol-2(3H)-one]: the “Activity” value was “a (“a” denotes as activity range from 200-400%)”.

`NS(=O)(=O)c1cccc(-c2nc(-c3cccnc3)no2)c1` [Example 35, 3-(3-(pyridin-3-yl)-1,2,4-oxadiazol-5-yl)benzenesulfonamide]: the “Activity” value is “a (“a” denotes as activity range from 200-400%)”.

Regarding `CC(=O)c1cccc(-c2nc(-c3cccnc3)no2)c1` [Example 68, 1-(3-(3-(pyridin-3-yl)-1,2,4-oxadiazol-5-yl)phenyl)ethanone], the “Activity” value was “b (“b” denotes an activity range from 150-200%)”.

As for `O=c1ccc(-c2noc(-c3cccnc3)n2)c[nH]1` [Example 55, 5-(5-(pyridin-3-yl)-1,2,4-oxadiazol-3-yl)pyridin-2(1H)-one], the “Activity” value was “c (“c” denotes an activity range from 120-150%)”.

As for `Oc1cncc(-c2nc(-c3cccnc3)no2)c1` [Example 9, 5-(3-(pyridin-3-yl)-1,2,4-oxadiazol-5-yl)pyridin-3-ol], the “Activity” value is “d (“d” denotes an activity range 90-120%)”.

As to `Brc1cncc(-c2nc(-c3cccnc3)no2)c1` [Example 5, 5-(5-bromopyridin-3-yl)-3-(pyridin-3-yl)-1,2,4-oxadiazole], the “Activity” value is listed as “c (“c” denotes an activity range from 120-150%)”.

Turning to `N#Cc1cccc(-c2noc(-c3cccnc3)n2)c1` [Example 3, 3-(5-(pyridin-3-yl)-1,2,4-oxadiazol-3-yl)benzonitrile], the “Activity” value is listed as “a (“a” denotes as activity range from 200-400%)”.

With `O=[N+]([O-])c1cccc(-c2nc(-c3cccnc3)no2)c1` [Example 40, 5-(3-nitrophenyl)-3-(pyridin-3-yl)-1,2,4-oxadiazole], the “Activity” value was “a (“a” denotes as activity range from 200-400%)”.

For `Cc1ccc(-c2noc(-c3cccc(C#N)c3)n2)cn1` [Example 7, 3-(3-(6-methylpyridin-3-yl)-1,2,4-oxadiazol-5-yl)benzonitrile], the “Activity” value was “b (“b” denotes an activity range from 150-200%)”.

Take `N#Cc1ccc(-c2nc(-c3cccnc3)no2)cc1` [Example 19, 4-(3-(pyridin-3-yl)-1,2,4-oxadiazol-5-yl)benzonitrile]: the “Activity” value is given as “b (“b” denotes an activity range from 150-200%)”.

Consider `Clc1cc(-c2noc(-c3cccnc3)n2)ccn1` [Example 42, 3-(2-chloropyridin-4-yl)-5-(pyridin-3-yl)-1,2,4-oxadiazole], for which the “Activity” value is reported as “c (“c” denotes an activity range from 120-150%)”.

As to `N#Cc1cccc(-c2noc(-c3ccc(Cl)nc3)n2)c1` [Example 76, 3-(5-(6-chloropyridin-3-yl)-1,2,4-oxadiazol-3-yl)benzonitrile], the “Activity” value is on record as “b (“b” denotes an activity range from 150-200%)”.

Take `N#Cc1cccc(-c2noc(-c3ccc(F)nc3)n2)c1` [Example 4, 3-(5-(6-fluoropyridin-3-yl)-1,2,4-oxadiazol-3-yl)benzonitrile]: the “Activity” value is reported as “b (“b” denotes an activity range from 150-200%)”.

As to `Fc1ccc(-c2nc(-c3cccnc3)no2)cc1F` [Example 10, 5-(3,4-difluorophenyl)-3-(pyridin-3-yl)-1,2,4-oxadiazole], the “Activity” value is recorded as “a (“a” denotes as activity range from 200-400%)”.

As to `Fc1cccc(-c2nc(-c3cccnc3)no2)c1F` [Example 11, 5-(2,3-difluorophenyl)-3-(pyridin-3-yl)-1,2,4-oxadiazole], the “Activity” value was “a (“a” denotes as activity range from 200-400%)”.
